Test results published in ChEMBL document CHEMBL5696441 (Nat Chem Biol, 2011).

Key:
[1] = biological target: Rho-associated protein kinase 1 (Homo sapiens) (UniProt Q13464); assay: Inhibition of human ROCK1 assessed as residual activity at 1 uM using 3xChocktide-PKC(19-31) as substrate in presence of 33P-ATP by ProQinase assay relative to control
[2] = biological target: Serine/threonine-protein kinase Sgk3 (Homo sapiens) (UniProt Q96BR1); assay: Inhibition of human SGK3 assessed as residual activity at 1 uM using RBER-GSK3(14-27) as substrate in presence of 33P-ATP by ProQinase assay relative to control
Chain of Serine/threonine-protein kinase Sgk3 (Homo sapiens) (Q96BR1 whole entry): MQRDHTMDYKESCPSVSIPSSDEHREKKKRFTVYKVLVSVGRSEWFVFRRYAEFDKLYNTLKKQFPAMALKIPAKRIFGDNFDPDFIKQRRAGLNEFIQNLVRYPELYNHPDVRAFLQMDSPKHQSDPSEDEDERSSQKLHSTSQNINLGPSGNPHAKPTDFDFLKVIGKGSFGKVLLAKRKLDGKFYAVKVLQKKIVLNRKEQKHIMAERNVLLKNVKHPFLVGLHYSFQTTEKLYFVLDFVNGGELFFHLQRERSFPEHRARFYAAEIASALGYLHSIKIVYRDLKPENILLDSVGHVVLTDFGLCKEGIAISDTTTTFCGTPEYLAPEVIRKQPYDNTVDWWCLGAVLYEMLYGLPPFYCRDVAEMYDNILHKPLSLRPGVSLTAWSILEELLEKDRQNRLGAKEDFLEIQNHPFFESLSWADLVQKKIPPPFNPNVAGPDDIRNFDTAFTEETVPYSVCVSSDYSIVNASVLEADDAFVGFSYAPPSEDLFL

[3] = biological target: Tyrosine-protein kinase Srms (Homo sapiens) (UniProt Q9H3Y6); assay: Inhibition of SRMS (unknown origin) assessed as remaining activity at 1 uM by Kinome scan method relative to control
Chain of Tyrosine-protein kinase Srms (Homo sapiens) (Q9H3Y6 whole entry): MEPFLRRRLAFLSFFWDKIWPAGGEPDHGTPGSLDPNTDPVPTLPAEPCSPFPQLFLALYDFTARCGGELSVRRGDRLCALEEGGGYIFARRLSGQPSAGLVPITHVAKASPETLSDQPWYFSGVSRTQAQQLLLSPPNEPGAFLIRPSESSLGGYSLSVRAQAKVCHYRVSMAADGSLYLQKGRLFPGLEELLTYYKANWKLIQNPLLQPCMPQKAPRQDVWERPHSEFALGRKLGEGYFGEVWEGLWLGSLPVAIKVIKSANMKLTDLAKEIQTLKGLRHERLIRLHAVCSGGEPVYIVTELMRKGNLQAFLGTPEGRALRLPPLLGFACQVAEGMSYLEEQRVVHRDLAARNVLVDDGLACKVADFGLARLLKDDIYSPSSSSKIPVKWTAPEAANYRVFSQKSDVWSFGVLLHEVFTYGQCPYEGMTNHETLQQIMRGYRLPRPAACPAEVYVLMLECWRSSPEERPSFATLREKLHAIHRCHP

[4] = biological target: T1, Serine/threonine-protein kinase BRSK1 (Homo sapiens) (UniProt Q8TDC3); assay: Inhibition of human BRSK1 assessed as residual activity at 1 uM using RBER-CHKtide as substrate in presence of 33P-ATP by ProQinase assay relative to control
T1 sequence (whole entry): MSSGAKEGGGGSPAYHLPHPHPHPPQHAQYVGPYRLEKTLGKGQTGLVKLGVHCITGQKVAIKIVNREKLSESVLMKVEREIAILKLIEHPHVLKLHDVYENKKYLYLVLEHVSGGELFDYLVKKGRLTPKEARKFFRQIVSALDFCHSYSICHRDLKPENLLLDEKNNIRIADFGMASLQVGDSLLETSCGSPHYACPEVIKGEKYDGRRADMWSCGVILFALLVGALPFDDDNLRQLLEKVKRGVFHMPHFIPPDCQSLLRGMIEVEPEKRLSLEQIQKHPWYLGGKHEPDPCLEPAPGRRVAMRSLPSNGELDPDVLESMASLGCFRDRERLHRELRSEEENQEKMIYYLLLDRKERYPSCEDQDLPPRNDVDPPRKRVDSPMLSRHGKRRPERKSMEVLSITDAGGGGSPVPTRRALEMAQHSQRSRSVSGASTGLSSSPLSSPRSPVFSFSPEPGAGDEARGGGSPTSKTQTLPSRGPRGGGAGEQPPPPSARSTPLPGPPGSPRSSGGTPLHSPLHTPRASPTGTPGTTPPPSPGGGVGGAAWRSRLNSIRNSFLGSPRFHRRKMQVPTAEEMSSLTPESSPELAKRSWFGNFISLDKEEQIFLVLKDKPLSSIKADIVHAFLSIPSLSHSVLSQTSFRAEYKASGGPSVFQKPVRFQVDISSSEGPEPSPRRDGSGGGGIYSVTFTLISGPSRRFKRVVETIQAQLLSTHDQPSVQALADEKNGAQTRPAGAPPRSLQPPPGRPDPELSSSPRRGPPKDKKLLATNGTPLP

[5] = biological target: Serine/threonine-protein kinase PAK 6 (Homo sapiens) (UniProt Q9NQU5); assay: Inhibition of PAK6 (unknown origin) assessed as remaining activity at 1 uM by Kinome scan method relative to control
Chain of Serine/threonine-protein kinase PAK 6 (Homo sapiens) (Q9NQU5 whole entry, looked up): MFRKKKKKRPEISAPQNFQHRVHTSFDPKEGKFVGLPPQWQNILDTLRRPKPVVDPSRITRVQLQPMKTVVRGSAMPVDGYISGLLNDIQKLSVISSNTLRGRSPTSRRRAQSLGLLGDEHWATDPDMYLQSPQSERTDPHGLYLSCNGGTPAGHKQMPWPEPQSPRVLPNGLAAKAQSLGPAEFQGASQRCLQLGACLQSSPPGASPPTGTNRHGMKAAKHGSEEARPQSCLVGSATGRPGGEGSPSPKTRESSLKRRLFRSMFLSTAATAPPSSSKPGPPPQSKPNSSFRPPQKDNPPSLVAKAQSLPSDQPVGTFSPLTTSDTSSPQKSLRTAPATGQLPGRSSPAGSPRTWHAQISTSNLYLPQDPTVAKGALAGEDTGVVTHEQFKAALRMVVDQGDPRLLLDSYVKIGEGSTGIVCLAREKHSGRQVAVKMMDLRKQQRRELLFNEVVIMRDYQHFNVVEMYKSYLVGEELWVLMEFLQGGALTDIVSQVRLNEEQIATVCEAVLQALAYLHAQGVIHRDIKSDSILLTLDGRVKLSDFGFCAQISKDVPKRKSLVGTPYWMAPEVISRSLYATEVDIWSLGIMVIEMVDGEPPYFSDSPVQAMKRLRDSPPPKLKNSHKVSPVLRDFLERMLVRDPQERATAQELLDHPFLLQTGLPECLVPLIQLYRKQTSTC

[6] = biological target: Dual specificity tyrosine-phosphorylation-regulated kinase 1B (Homo sapiens) (UniProt Q9Y463); assay: Inhibition of DYRK1B (unknown origin) assessed as remaining activity at 1 uM by Kinome scan method relative to control
Chain of Dual specificity tyrosine-phosphorylation-regulated kinase 1B (Homo sapiens) (Q9Y463 whole entry, looked up): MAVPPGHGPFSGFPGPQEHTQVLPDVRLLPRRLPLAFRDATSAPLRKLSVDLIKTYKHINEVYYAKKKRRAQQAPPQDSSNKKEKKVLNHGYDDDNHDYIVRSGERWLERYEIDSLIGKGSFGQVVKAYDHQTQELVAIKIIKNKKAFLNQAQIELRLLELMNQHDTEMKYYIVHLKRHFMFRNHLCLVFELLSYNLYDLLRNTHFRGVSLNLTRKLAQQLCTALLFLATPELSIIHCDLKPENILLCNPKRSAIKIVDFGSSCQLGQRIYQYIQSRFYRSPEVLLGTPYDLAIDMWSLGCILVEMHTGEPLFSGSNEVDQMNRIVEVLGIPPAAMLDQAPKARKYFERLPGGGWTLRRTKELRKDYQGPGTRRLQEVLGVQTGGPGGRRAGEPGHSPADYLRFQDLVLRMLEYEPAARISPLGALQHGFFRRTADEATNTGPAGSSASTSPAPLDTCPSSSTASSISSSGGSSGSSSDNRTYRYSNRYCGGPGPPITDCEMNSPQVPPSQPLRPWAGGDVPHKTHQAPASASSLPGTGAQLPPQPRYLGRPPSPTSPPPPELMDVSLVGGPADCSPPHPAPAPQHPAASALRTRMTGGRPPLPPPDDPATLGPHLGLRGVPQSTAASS

[7] = biological target: T2, Serine/threonine-protein kinase DCLK2 (Homo sapiens) (UniProt Q8N568); assay: Inhibition of human DCAMKL2 assessed as residual activity at 1 uM using RBER-CHKtide as substrate in presence of 33P-ATP by ProQinase assay relative to control
T2 sequence (whole entry): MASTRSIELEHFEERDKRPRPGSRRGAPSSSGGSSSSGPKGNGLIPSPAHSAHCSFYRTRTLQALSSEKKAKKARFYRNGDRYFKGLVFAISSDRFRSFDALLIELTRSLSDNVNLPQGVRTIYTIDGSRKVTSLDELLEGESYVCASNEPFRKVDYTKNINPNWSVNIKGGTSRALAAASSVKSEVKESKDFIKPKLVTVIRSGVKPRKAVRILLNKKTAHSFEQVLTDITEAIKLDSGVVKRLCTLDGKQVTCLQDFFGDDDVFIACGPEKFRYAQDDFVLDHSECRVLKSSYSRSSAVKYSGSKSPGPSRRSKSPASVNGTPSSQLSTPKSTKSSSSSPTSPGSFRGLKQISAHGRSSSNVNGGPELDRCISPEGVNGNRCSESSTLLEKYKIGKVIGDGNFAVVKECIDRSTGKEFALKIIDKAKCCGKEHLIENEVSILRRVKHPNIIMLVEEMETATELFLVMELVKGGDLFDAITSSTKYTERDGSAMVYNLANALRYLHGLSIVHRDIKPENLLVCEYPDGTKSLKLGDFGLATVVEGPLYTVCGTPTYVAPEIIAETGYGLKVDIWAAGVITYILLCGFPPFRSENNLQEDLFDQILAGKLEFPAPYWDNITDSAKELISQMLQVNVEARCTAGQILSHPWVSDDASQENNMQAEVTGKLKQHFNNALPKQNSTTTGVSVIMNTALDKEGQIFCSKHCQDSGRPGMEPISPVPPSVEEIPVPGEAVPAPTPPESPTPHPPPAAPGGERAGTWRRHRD

[8] = biological target: Serine/threonine-protein kinase N2 (Homo sapiens) (UniProt Q16513); assay: Inhibition of human PRK2 assessed as residual activity at 1 uM using RBER-CHKtide as substrate in presence of 33P-ATP by ProQinase assay relative to control
Chain of Serine/threonine-protein kinase N2 (Homo sapiens) (Q16513 whole entry, looked up): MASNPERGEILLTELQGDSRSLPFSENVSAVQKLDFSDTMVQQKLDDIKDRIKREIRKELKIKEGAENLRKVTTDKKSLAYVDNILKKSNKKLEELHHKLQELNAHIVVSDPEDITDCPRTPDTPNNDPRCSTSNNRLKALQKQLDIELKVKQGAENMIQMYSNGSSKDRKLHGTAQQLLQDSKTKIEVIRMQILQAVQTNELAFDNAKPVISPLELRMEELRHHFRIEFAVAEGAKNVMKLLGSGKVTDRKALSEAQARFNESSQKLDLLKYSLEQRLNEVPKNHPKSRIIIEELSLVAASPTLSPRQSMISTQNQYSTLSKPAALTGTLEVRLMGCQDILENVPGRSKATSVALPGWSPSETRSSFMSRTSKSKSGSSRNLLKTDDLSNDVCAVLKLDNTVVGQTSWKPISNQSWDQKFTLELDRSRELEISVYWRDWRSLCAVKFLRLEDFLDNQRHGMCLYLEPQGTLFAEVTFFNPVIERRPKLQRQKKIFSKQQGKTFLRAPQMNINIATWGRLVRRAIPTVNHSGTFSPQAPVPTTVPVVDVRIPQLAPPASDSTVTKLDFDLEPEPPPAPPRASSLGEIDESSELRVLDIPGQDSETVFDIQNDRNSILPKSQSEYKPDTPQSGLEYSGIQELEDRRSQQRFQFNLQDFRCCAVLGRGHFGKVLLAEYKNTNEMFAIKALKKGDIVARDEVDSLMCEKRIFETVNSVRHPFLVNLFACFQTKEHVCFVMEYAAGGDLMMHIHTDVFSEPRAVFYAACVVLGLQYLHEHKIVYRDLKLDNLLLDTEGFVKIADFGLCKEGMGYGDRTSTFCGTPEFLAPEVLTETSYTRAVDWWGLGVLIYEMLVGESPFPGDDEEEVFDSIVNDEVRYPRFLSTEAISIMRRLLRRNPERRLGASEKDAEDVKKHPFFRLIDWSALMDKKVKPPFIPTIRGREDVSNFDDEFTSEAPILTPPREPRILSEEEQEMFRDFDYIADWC

Chain of Rho-associated protein kinase 1 (Homo sapiens) (Q13464 2-1354 limits assumed): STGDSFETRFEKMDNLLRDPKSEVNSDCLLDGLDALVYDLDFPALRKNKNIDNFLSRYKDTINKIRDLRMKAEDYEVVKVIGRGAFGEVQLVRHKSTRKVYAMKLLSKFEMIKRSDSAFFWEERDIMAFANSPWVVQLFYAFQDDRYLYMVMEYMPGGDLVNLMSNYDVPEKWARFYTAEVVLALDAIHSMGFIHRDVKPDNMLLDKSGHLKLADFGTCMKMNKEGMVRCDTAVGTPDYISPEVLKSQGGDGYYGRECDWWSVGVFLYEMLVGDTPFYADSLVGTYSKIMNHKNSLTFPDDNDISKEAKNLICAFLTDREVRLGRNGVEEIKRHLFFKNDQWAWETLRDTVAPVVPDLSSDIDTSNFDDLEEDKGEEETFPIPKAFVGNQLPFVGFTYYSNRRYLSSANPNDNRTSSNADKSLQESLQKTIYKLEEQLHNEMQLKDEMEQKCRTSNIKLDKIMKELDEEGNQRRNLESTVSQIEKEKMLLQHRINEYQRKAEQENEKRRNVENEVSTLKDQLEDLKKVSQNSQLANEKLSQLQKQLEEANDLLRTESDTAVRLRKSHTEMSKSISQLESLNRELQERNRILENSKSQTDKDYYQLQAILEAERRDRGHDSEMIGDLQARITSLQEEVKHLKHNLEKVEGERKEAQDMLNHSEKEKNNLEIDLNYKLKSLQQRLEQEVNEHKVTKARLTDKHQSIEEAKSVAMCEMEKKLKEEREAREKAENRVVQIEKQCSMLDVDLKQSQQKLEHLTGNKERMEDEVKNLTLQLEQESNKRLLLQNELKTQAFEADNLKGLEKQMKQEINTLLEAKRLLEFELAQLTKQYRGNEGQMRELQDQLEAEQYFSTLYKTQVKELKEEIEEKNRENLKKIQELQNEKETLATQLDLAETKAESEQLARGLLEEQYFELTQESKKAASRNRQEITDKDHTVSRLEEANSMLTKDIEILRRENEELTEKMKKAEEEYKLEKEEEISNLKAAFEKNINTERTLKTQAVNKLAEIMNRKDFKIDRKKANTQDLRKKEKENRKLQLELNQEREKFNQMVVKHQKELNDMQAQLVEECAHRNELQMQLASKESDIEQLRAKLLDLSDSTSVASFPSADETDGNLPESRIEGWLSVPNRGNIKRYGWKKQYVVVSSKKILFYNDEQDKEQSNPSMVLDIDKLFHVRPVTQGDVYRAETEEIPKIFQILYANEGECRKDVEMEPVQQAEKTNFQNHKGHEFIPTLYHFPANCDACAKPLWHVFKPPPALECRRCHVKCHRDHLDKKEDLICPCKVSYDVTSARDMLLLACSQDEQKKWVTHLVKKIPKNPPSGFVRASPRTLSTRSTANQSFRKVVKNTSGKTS

**Q.** For `O=C1c2ccc(Nc3ccc(F)cc3F)cc2CCc2ccc(OC[C@H](O)CO)cc21` [Skepinone-L], which Activity [1] is on record?
**A.** Its Activity is 97%.

**Q.** What about the Activity [2] of the same compound?
**A.** The Activity was 102%.

**Q.** What about the Activity [3] of the same compound?
**A.** The Activity was 90%.

**Q.** What about the Activity [4] of the same compound?
**A.** The Activity was 94%.

**Q.** What about the Activity [5] of the same compound?
**A.** Its Activity is 99%.

**Q.** And the Activity [6]?
**A.** The Activity was 82%.

**Q.** What about the Activity [7] of the same compound?
**A.** The Activity was 83%.

**Q.** What about the Activity [8] of the same compound?
**A.** The Activity was 95%.
